In ChEMBL document CHEMBL1201862, “PubChem BioAssay data set” (2004):
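In this assay, cells in 96-well plates receive the compound at five concentrations for 48 hours. Endpoints are linearly interpolated between the surrounding concentrations. GI50 = concentration required for 50% inhibition of growth.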 Calls of active or inactive are those of the source. Rule as the data show it: active = GI50 up to about 1.1 µM and inactive = higher.

What was measured:
Assay in all cases: NCI-60 cell line screen, 48 h
NCI-H522 = system: NCI-H522
TK-10 = system: TK-10
HCT-15 = system: HCT-15
MOLT-4 = system: MOLT-4
UACC-257 = system: UACC-257
UO-31 = system: UO-31
RPMI-8226 = system: RPMI-8226
U-251 = system: U-251
UACC-62 = system: UACC-62
SF-539 = system: SF-539
DU-145 = system: DU-145
K562 = system: K562
SW-620 = system: SW-620
SNB-19 = system: SNB-19
NCI/ADR-RES = system: NCI/ADR-RES
MDA-MB-435 = system: MDA-MB-435
IGROV-1 = system: IGROV-1
MDA-N = system: MDA-N
MDA-MB-231 = system: MDA-MB-231
Hs-578T = system: Hs-578T

SMILES | GI50 (NCI-H522) | GI50 (TK-10) | GI50 (HCT-15) [µM] | GI50 (MOLT-4) | GI50 (UACC-257) | GI50 (UO-31) | GI50 (RPMI-8226) | GI50 (U-251) | GI50 (UACC-62) | GI50 (SF-539) | GI50 (DU-145) | GI50 (K562) | GI50 (SW-620) | GI50 (SNB-19) | GI50 (NCI/ADR-RES) | GI50 (MDA-MB-435) | GI50 (IGROV-1) | GI50 (MDA-N) | GI50 (MDA-MB-231) | GI50 (Hs-578T)
O=C(NNCc1ccc(Cl)cc1)Nc1cccc2ccccc12 | 27.3 µM (inactive) | > 100 µM (inactive) | > 100 | 29.4 µM (inactive) | > 100 µM (inactive) | 84.1 µM (inactive) | 16.4 µM (inactive) | 58.5 µM (inactive) | 90.4 µM (inactive) | 47.4 µM (inactive) | 69.2 µM (inactive) | > 100 µM (inactive) | > 100 µM (inactive) | > 100 µM (inactive) | > 100 µM (inactive) | 52.6 µM (inactive) | > 100 µM (inactive) | > 100 µM (inactive) |  | 
COc1ccc(Nc2nc3ccc(C(F)(F)F)cc3nc2C(=O)O)cc1 |  | 30.3 µM (inactive) | 28.6 | 29.5 µM (inactive) | 32.6 µM (inactive) |  | 12.1 µM (inactive) | 32.1 µM (inactive) | 19.1 µM (inactive) | 23.9 µM (inactive) | 49.1 µM (inactive) | 29.9 µM (inactive) | 38.4 µM (inactive) |  | 29.9 µM (inactive) | 34.3 µM (inactive) | 17.1 µM (inactive) | 42.2 µM (inactive) | 66.4 µM (inactive) | 
Cc1c(C)c(C)n(C2OC(CO)C(O)C(O)C2O)c(=S)c1C#N (stereo not given) | > 100 µM (inactive) | > 100 µM (inactive) | > 100 | > 100 µM (inactive) | > 100 µM (inactive) | > 100 µM (inactive) |  | > 100 µM (inactive) | > 100 µM (inactive) | > 100 µM (inactive) | > 100 µM (inactive) | > 100 µM (inactive) | > 100 µM (inactive) | > 100 µM (inactive) | > 100 µM (inactive) | > 100 µM (inactive) | > 100 µM (inactive) | > 100 µM (inactive) | > 100 µM (inactive) | 
COc1cc2c(c(O)c1OC)C(=O)C(Cc1ccc(O)cc1)CO2 (stereo not given) | 3.27 µM (inactive) | > 100 µM (inactive) | 11.2 | 35.2 µM (inactive) | 54.2 µM (inactive) | 40.6 µM (inactive) | 16.6 µM (inactive) | 29.5 µM (inactive) | 32.4 µM (inactive) | 16.1 µM (inactive) | 39.8 µM (inactive) | 13.1 µM (inactive) | 30.1 µM (inactive) | 20.3 µM (inactive) | 10.5 µM (inactive) | 2.36 µM (inactive) | 35.3 µM (inactive) |  | 22.9 µM (inactive) | 14.4 µM (inactive)
COc1ccc(Nc2nnc(CCCCCCCCc3nnc(Nc4ccc(OC)cc4)o3)o2)cc1 | 61.7 µM (inactive) | > 100 µM (inactive) | > 100 | > 100 µM (inactive) | > 100 µM (inactive) | > 100 µM (inactive) |  | > 100 µM (inactive) |  | > 100 µM (inactive) | > 100 µM (inactive) | > 100 µM (inactive) | > 100 µM (inactive) | > 100 µM (inactive) | > 100 µM (inactive) | > 100 µM (inactive) | > 100 µM (inactive) | > 100 µM (inactive) | > 100 µM (inactive) | 
OCC1OC(n2cnc3c(Cl)nc(Nc4ccc(Cl)c(Cl)c4)nc32)CC1O (stereo not given) | 9.29 µM (inactive) | 8.36 µM (inactive) | 8.63 | 5.02 µM (inactive) | 9.48 µM (inactive) | 11.6 µM (inactive) | 8.13 µM (inactive) | 10.2 µM (inactive) | 8.73 µM (inactive) |  | 11.6 µM (inactive) | 8.63 µM (inactive) | 11.9 µM (inactive) | 20.5 µM (inactive) | 10.4 µM (inactive) | 9.38 µM (inactive) | 11.9 µM (inactive) |  | 11.8 µM (inactive) | 13.2 µM (inactive)
Cc1ccnc2nc(-c3ccc4ccccc4c3)cc(O)c12 | 0.601 µM (active) | 1.75 µM (inactive) | 0.43 | 0.479 µM (active) | 6.75 µM (inactive) | 3.26 µM (inactive) | 0.641 µM (active) |  | 0.531 µM (active) | 1.22 µM (inactive) | 4.1 µM (inactive) | 0.403 µM (active) | 0.451 µM (active) | 3.77 µM (inactive) | 1.3 µM (inactive) |  | 1.2 µM (inactive) |  | 1.67 µM (inactive) | 1.44 µM (inactive)
COc1cc(S(=O)(=O)N/N=C/c2cc(Br)c(O)c(OC)c2)c(OC)cc1NC(C)=O |  | 77.3 µM (inactive) | 52.6 | 42.9 µM (inactive) | > 100 µM (inactive) | > 100 µM (inactive) | 47.2 µM (inactive) | > 100 µM (inactive) |  | 20.2 µM (inactive) | 85.9 µM (inactive) | 41.5 µM (inactive) | 35.1 µM (inactive) | > 100 µM (inactive) | > 100 µM (inactive) | 80.5 µM (inactive) | 50.8 µM (inactive) | 83.6 µM (inactive) | 52.6 µM (inactive) | 
